Test results as given in patent US11214570B2, “Pyrrolopyridine derivative, method for producing same, and use thereof” (ST PHARM CO., LTD., priority 2017, dated 2022).
Where two headings read alike, the source gives them in different places.

Experiments:
[1] = system: HIV-1 NL4-3 wt; assay: Inhibition of HIV-1 NL4-3 wt; format: cell-based; conditions: Human immunodeficiency virus 1, NL43
Experimental: (§1) In order to look into the HIV-1 (Wild/Mutant type) inhibition effects of the compound of the invention, a test for HIV-1 (Wild/Mutant type) inhibition effect was carried out in vitro as follows according to a known method (H. Tanaka et al., J. Med. Chem., 1991, 34, 349). MT-4 cells were used as host cells, and the degree of the compound of the present invention inhibiting cytotoxicity for the virus-infected MT-4 cells was investigated.
(§2) First, MT-4 cells were dispersed in a culture medium at a concentration of 1×10^4cells/well, and HIV-1 was inoculated so that the concentration was 500 TCI50 (concentration at which 50% of the cells are infected)/well. Immediately after the inoculation, the cell dispersion was transferred in 100 μL each to a flat microtiter plate in which a sample of the compound of the invention was placed. The sample was incubated for approximately for 4 to 5 days at […], and the virus inhibition effect was determined with an MTT method. […] As a comparative compound, azidothymidine (AZT), Raltegravir, Dolutegravir, and Elvitegravir were used.

[2] = system: HIV-1 Clone 4736_2; assay: microbe, parasite or virus in culture; format: cell-based; conditions: Human immunodeficiency virus 1
Experimental: as §1, §2

[3] = system: HIV-1 Clone 4736_4; assay: Inhibition of HIV-1 clone 4736_4 (Raltegravir resistance mutant); format: cell-based; conditions: Human immunodeficiency virus 1
Experimental: as §1, §2

[4] = system: HIV-1 Clone 8070_1; assay: Inhibition of HIV-1 clone 8070_1 (Raltegravir resistance mutant); format: cell-based; conditions: Human immunodeficiency virus 1
Experimental: as §1, §2

[5] = system: HIV-1 Clone 8070_2; assay: Inhibition of HIV-1 clone 8070_2 (Raltegravir resistance mutant); format: cell-based; conditions: Human immunodeficiency virus 1
Experimental: as §1, §2

[6] = system: HIV-1 Clone 1556_1; assay: Inhibition of HIV-1 clone 1556_1 (Raltegravir resistance mutant); format: cell-based; conditions: Human immunodeficiency virus 1
Experimental: as §1, §2

[7] = system: Wild Type HIV-1(IIIB); assay: Inhibition of wild type HIV-1(IIIB) in MT-4 cells (MTT method); format: cell-based
Experimental: as §1, §2

[8] = Pharmacokinetics test in male rats; format: in vivo, rat
Experimental: Experiments were carried out to detect changes in in vivo kinetics including in vivo absorption, distribution, metabolism and excretion for the compound of Example 1 of the present invention. A tube was inserted into the jugular vein and femoral vein of a rat. A drug was administered into the femoral vein in the case of intravenous administration, and a drug was administered into the oral cavity in the case of oral administration. Blood was collected from the jugular vein at a predetermined time. Dose concentration was 1 mg/kg for intravenous administration, and it was 2 mg/kg for oral administration. After centrifuging blood to separate plasma, the plasma and urine samples were pretreated with an appropriate organic solvent, and then concentration of the drug was analyzed with LC-MS/MS. From the data of the drug concentration in blood relative to time which were analyzed after oral and intravenous administrations, the noncompartmental pharmacokinetic parameter was calculated with WinNonlin (Pharsight, USA).

[9] = Liver microsomal stability, rat; format: in vitro ADME; conditions: rat liver microsome, NADPH
Experimental: (§3) The in vitro metabolic stability test was conducted for the compound of Example 1 of the present invention. In order to confirm in vitro metabolic stability, liver microsomal half-life of the compound was observed. A drug compound was reacted with NADPH using a species-specific (rat, dog, monkey, and human) liver microsome containing various metabolizing enzymes, and then half-life of the drug was determined by quantifying with LC-MS/MS in minutes.

[10] = Liver microsomal stability, dog; format: in vitro ADME; conditions: dog liver microsome, NADPH, read-out: Dog liver (T1/2, Min)
Experimental: as §3

[11] = Liver microsomal stability, monkey; format: in vitro ADME; conditions: monkey liver microsome, NADPH, read-out: Monkey liver (T1/2, Min)
Experimental: as §3

[12] = Liver microsomal stability, human; format: in vitro ADME; conditions: human liver microsome, NADPH
Experimental: as §3

[13] = molecular target: T1, hERG K+ channel (Homo sapiens, UniProt Q12809); assay: hERG K+ channel assay (Patch Clamp Recording Method); format: cell-based; conditions: HERG-HEK293, automated planar patch clamp
T1 construct: expressed in transfected cells; host or cells: HERG-HEK293
Experimental: hERG K^+ channel assay was carried out to predict cardiotoxicity for the compound of the invention. The hERG activity of the compound was measured with HERG-HEK293 using automated planar patch clamp [PatchXpress 7000A]. This method is the most well-known method for studying ion channel, in which the flow of ions through the channel is directly measured with a voltage clamp.

[14] = system: CYP1A2, CYP2C9, CYP2D6, CYP3A4 and CYPC19; assay: CYP450 inhibition test (five enzymes, text summary); format: in vitro ADME; conditions: human liver microsomes, 10 μM
Experimental: The CYP450 inhibition test was carried out for the compound of the present invention. To human liver microsomes (0.25 mg/ml), 0.1 M phosphate buffer (pH 7.4) and drug cocktails of five drug-metabolizing enzymes (CYP1A2, CYP2C9, CYP2D6, CYP3A4 and CYPC19) (Cocktail A: Phenacetin 50 μM, S-mephenytoin 100 μM, dextromethorphan 5 nM, midazolam 2.5 μM, Cocktail B: tolbutamide 100 μM), the compound of Example 1 was added at concentrations of 0 and 10 μM, respectively, and then cultured at 37° C. for 15 minutes. Subsequently, in order to terminate the reaction, an acetonitrile solution containing an internal standard (chloropropamide) was added thereto, and resulting mixture was centrifuged (14,000 rpm, 4° C.) for 5 minutes. Supernatant was then injected into LC/MS/MS system and the metabolites of the substrate drugs were simultaneously analyzed to thereby evaluate activities of the test compound inhibiting the drug-metabolizing enzymes.

[15] = Human immunodeficiency virus 1, IIIB, MT4, read-out: EC50: concentration of 50% inhibition of HIV infection

T1 sequence (Q12809 whole entry): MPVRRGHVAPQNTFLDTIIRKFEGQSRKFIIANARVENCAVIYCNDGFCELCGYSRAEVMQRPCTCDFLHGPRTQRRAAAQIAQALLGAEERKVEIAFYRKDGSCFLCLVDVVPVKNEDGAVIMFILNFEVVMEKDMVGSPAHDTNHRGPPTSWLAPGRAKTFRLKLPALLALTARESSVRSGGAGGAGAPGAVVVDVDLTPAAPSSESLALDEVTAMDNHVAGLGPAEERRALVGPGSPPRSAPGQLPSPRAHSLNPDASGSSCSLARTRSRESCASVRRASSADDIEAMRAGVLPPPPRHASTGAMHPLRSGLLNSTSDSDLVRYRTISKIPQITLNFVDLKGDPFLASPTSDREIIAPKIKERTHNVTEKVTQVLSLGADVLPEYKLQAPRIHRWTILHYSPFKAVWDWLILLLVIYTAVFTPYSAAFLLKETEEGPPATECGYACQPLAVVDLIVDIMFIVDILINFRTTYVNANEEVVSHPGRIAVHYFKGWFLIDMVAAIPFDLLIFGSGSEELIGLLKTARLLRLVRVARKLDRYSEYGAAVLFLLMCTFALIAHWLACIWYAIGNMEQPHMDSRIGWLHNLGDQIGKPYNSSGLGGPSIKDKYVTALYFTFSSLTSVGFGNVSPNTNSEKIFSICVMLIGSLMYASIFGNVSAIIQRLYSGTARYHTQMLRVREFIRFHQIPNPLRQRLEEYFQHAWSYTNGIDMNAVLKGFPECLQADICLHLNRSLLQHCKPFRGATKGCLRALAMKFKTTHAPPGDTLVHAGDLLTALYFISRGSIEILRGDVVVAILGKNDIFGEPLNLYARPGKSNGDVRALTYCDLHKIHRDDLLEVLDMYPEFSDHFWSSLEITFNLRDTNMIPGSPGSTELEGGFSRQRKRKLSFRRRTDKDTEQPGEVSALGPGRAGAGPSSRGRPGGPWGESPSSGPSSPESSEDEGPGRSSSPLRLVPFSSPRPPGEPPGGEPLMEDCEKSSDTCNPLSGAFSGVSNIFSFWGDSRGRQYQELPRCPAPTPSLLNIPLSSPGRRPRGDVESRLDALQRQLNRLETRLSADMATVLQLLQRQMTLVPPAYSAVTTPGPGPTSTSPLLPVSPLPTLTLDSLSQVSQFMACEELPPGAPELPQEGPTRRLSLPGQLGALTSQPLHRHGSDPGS

| Compound | IC50 [2] | IC50 [3] | IC50 [4] | IC50 [5] | IC50 [6] | IC50 [1] | EC50 [7, 15] | other results |
| --- | --- | --- | --- | --- | --- | --- | --- | --- |
| C[C@@H]1CCO[C@H]2Cn3cc(C(=O)NCc4ccc(F)cc4F)c(=O)c(O)c3C(=O)N12 [Dolutegravir] | 3.5 nM | 3 nM | 8.5 nM | 4.4 nM | 3.2 nM |  |  | IC50 ([1]; NL4-3 wt, read-out: IC50): 3.2 nM |
| COc1cc2c(cc1Cc1cccc(Cl)c1F)c(=O)c(C(=O)O)cn2[C@H](CO)C(C)C [Elvitegravir] | 410 nM | 320 nM | > 10000 nM |  | 276 nM | < 0.1 nM |  |  |
| Cc1nc2c(c(C)c(C)n2Cc2cnn(C)c2)c(-c2ccc(Cl)cc2)c1[C@H](OC(C)(C)C)C(=O)O [Example 1] | 1.1 nM | 3.4 nM | 0.9 nM | 3.4 nM | 3.4 nM | 3.6 nM | 3.23 nM | F ([8]; PO, 2 mg/kg): 71.8%; AUC(0-inf) ([8]; rat, plasma, IV, 1 mg/kg): 6.51 µM·h; AUC(0-t) ([8]; rat, plasma, IV, 1 mg/kg): 6.08 µM·h; clearance ([8]; rat, plasma, IV, 1 mg/kg): 5.38 mL/min/kg; half-life ([8]; rat, plasma, IV, 1 mg/kg): 518 min; Vd ([8]; rat, plasma, IV, 1 mg/kg, read-out: Vss): 1.77 L/kg; AUC(0-inf) ([8]; rat, plasma, PO, 2 mg/kg): 10.4 µM·h; AUC(0-t) ([8]; rat, plasma, PO, 2 mg/kg): 8.73 µM·h; Cmax ([8]; rat, plasma, PO, 2 mg/kg): 914 nM; Tmax ([8]; rat, plasma, PO, 2 mg/kg): 3.2 h; half-life ([8]; rat, plasma, PO, 2 mg/kg): 520 min; half-life ([9]; liver microsomes, read-out: Rat liver (T1/2, Min)): > 145 min; half-life ([10]; liver microsomes): > 145 min; half-life ([11]; liver microsomes): 133 min; half-life ([12]; liver microsomes, read-out: Human liver (T1/2, Min)): 136 min; IC50 [13]: 66.7 µM; inhibitory activity against five CYP enzymes [14]: does not exhibit an inhibitory activity |
| Cc1nn(C)c(Cl)c1Cn1c(C)c(C)c2c(-c3ccc(Cl)cc3)c([C@H](OC(C)(C)C)C(=O)O)c(C)nc21 [Example 2, (S)-2-(tert-butoxy)-2-(1-((5-chloro-1,3-dimethyl-1H-pyrazol-4-yl)methyl)-4-(4-chlorophenyl)-2,3,6-trimethyl-1H-pyrrolo[2,3-b]pyridin-5-yl) acetic acid] |  |  |  |  |  |  |  | EC50 ([7]; Human immunodeficiency virus 1, MT4, Wild Type HIV-1(IIIB) in MT-4 Cells, MTT method, read-out: EC50: concentration of 50% inhibition of HIV infection): 25.7 nM |
| Cc1nnc(C(=O)NC(C)(C)c2nc(C(=O)NCc3ccc(F)cc3)c(O)c(=O)n2C)o1 [Raltegravir] | 351 nM | 351 nM | 4320 nM | 3840 nM | 3760 nM | 4.6 nM | 5.85 nM |  |
| C[C@]12CC[C@H]3[C@@H](CCC4=CC(=O)CC[C@@]43C)[C@@H]1CC[C@@H]2O [Testosterone, reference compound] |  |  |  |  |  |  |  | Rat liver (T1/2, Min) [9]: 0.7 min; half-life ([10]; microsomes): 23.6 min; half-life ([11]; microsomes): 13 min; Human liver (T1/2, Min) [12]: 19.7 min |
